Patent publication US11324720B2, “Antiproliferative DNA polymerase inhibitor” (NEW YORK MEDICAL COLLEGE, priority 2018, dated 2022)

How the values were obtained:
[1] = test system: R-BxPC-3 cells; test: Cell proliferation assay, MTT method; format: cell-based, human; conditions: R-BxPC-3 (cisplatin resistant)
From the text: DNA replication precedes cell division. Thus, cancer cells cannot divide and proliferate without successful chromosomal duplication. A DNA polymerase inhibitor should inhibit cancer cell proliferation. We characterized the antiproliferative properties of zelpolib on a number of cell lines originated from pancreatic cancer (BxPC-3) and breast cancer (MCF7 for ER+ breast cancer). In addition, we developed a cisplatin resistant subline of a pancreatic cancer cell line, R-BxPC3 for our studies as well. We used the MTT method^25 for analyzing cell proliferation. This assay is based on the reduction of 3-(4,5-dimethylthiazol-2-yl)-2,5-diphenyltetrazolium bromide by live cells to an insoluble formazon, which were subsequently dissolved in DMSO and quantified by UV absorbance. Therefore, the cell number is proportional to the optical density in the established linear region. […] The plateau phenomena indicate inhibition of proliferation without cell killing, similar to these observed from hydroxyurea^26, aphidicolin^27, and to a certain extent, methotrexate treatments^28. […]
Human cancer cells (5×10^3-7.5×10^3) were initially seeded in 96-well plates (Cellstar) containing 0.2 ml media per well. […] Formazan crystals were then dissolved in 150 μl DMSO and optical density was read at 490 nm^25. […] Results were analyzed by GraphPad Prism. […]

[2] = test system: HCC1395 cells; test: MTT assay with PARP inhibitors with or without zelpolib; format: cell-based, human; conditions: 2.5 μM zelpolib, 48 hrs
Procedure: However, there have been minimal clinical benefits for HR-proficient cancers^37-41. Since zelpolib can inhibit HR, we explored the effect of zelpolib in combination with PARP inhibitors on HR-proficient cancer cells. The hypothesis is that zelpolib will lead to an HR-defect through inhibition of Pol δ and render HR-proficient cells sensitive to PARP inhibition. […] The cells were treated with increasing concentrations of PARP inhibitor Niraparib (FIG. 5B) or Rucaparib (FIG. 5C) in the absence or presence of 2.5 μM zelpolib for 48 hrs. The number of cells were then analyzed by MTT assay.
(§1) Human cancer cells (5×10^3-7.5×10^3) were initially seeded in 96-well plates (Cellstar) containing 0.2 ml media per well. After 24 hrs, these cells were treated with variable concentrations drug combinations for 48-72 hrs. Subsequently, 4,5-dimethylthiazol-2-yl-2,5-diphenyltetrazolium bromide (MTT) (20 μl of 5 mg/ml) was added to each well for 3 hrs. Formazan crystals were then dissolved in 150 μl DMSO and optical density was read at 490 nm^25. All experiments were performed in triplicates. Results were analyzed by GraphPad Prism. Data represent mean value±SEM for each concentration of inhibitor combinations.

[3] = test system: BxPC-3 cells; test: EdU incorporation by laser scanning cytometry; format: cell-based, human; conditions: 10 and 20 μM; 1 to 2 hours pre-incubation, then EdU pulse
[4] = molecular target: T1, Pol δ (Homo sapiens, UniProt P28340); test: primer extension assay (25 mer primer/40 mer template); format: biochemical; conditions: 20 μM inhibitor
T1 construct: made in house; host or cells: insect cells (Pol δ); E. coli (PCNA)
T1 sequence (P28340 whole entry): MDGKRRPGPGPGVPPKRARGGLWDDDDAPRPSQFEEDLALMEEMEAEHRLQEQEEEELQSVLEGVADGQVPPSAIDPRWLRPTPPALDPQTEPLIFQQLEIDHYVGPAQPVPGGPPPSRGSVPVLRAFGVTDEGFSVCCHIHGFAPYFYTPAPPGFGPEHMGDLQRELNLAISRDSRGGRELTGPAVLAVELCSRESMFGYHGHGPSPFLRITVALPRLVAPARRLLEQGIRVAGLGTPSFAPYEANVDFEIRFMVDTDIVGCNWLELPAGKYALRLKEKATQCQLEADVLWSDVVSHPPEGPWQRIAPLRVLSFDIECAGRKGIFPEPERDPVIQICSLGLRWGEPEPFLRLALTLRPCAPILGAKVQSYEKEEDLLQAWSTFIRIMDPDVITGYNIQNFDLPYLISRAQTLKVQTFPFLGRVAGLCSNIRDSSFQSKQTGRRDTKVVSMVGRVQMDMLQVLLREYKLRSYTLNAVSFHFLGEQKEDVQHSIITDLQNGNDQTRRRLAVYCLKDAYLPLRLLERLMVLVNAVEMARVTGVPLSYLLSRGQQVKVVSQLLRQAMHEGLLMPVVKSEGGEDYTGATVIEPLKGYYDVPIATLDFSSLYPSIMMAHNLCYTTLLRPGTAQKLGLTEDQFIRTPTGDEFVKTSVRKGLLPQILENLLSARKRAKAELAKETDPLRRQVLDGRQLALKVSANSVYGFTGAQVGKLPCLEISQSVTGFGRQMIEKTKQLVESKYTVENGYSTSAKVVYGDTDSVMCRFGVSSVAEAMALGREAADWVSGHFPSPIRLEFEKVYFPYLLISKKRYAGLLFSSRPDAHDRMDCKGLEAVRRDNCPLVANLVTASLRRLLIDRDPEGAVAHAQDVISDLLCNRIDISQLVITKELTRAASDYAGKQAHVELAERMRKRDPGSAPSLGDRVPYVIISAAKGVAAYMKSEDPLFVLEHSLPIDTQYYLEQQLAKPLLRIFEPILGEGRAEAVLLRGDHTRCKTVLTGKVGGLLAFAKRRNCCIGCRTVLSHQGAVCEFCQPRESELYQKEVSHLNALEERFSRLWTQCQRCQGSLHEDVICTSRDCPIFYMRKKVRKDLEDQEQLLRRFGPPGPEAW
T1 sequence (P49005 whole entry partner): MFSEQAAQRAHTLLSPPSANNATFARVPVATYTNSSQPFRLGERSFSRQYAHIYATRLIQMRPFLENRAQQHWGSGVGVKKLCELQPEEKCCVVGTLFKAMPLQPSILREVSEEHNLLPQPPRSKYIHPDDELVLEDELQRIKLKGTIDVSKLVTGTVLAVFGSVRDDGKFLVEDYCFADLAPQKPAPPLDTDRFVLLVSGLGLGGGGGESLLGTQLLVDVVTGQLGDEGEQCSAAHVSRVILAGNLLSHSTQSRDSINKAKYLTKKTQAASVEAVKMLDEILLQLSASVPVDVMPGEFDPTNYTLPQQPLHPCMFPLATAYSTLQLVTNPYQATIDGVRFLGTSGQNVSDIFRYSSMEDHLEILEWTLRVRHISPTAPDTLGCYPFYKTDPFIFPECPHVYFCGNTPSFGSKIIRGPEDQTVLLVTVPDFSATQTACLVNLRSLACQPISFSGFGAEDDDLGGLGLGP
T1 sequence (Q15054 whole entry partner): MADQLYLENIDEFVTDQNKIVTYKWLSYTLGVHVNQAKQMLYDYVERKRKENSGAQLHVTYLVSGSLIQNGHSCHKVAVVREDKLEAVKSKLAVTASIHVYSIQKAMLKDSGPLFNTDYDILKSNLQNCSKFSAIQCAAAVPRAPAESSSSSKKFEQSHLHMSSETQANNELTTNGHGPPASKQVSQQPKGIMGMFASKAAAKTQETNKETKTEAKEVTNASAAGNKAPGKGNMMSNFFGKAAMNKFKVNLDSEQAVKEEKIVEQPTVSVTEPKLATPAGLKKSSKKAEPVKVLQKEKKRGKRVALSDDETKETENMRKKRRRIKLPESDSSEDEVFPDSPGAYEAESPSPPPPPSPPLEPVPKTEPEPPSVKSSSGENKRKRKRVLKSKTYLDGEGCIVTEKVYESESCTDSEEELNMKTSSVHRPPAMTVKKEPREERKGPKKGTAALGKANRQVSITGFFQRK
T1 sequence (P12004 whole entry partner): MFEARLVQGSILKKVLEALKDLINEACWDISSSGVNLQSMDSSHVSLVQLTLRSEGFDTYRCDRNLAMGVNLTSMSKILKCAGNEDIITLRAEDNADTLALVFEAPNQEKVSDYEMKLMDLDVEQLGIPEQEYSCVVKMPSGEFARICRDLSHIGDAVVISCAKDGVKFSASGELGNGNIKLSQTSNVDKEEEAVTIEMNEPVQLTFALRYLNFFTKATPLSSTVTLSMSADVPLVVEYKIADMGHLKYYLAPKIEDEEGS
From the text: Next, we investigated the inhibitory properties of zelpolib in a primer extension assay^17,18 with a template that consists of all four deoxynucleotide that is more reflective of cellular DNA replication processes than the pold(A) template. The substrate consisted of a 25 mer primer hybridized to a 40 mer template. In the presence of PCNA and dNTPs, the primers were extended upon addition of Pol δ and a full extension would generate a 40 mer copy of the template. The primers were labeled at the 5′-end with ^32P, and the products were separated on a sequencing gel for visualization and quantification. […] The idea originated from the fact that most kinase inhibitors compete for binding with ATP. It is conceivable that they might compete with dATP for binding to polymerases. We randomly selected 10 small-molecule-cancer drugs with nine being kinase inhibitors^19 and one parp inhibitor (olaparib)^20. […] In the presence of any other inhibitors, at least 30% of the primers were extended.
Recombinant Pol […] were expressed in insect cells and purified as reported previously^18. […]
Briefly, the standard reaction mixture contained 5 μM dNTP, 5 mM MgCl2, 50 mM Tris-HCl (pH 7.5), 2 mM dithiothreitol, […] BSA, 50 mM NaCl, 20 nM primer/template, 50 nM PCNA, 10 nM Pol δ and variable concentrations of inhibitors. […] Products was visualized on phosphorimager and quantitated using Image-J software. […]

[5] = test system: BxPC-3 cells; test: Cell proliferation assay, MTT method; format: cell-based, human
From the text: (§2) DNA replication precedes cell division. Thus, cancer cells cannot divide and proliferate without successful chromosomal duplication. A DNA polymerase inhibitor should inhibit cancer cell proliferation. We characterized the antiproliferative properties of zelpolib on a number of cell lines originated from pancreatic cancer (BxPC-3) and breast cancer (MCF7 for ER+ breast cancer). In addition, we developed a cisplatin resistant subline of a pancreatic cancer cell line, R-BxPC3 for our studies as well. We used the MTT method^25 for analyzing cell proliferation. This assay is based on the reduction of 3-(4,5-dimethylthiazol-2-yl)-2,5-diphenyltetrazolium bromide by live cells to an insoluble formazon, which were subsequently dissolved in DMSO and quantified by UV absorbance. Therefore, the cell number is proportional to the optical density in the established linear region. […] The plateau phenomena indicate inhibition of proliferation without cell killing, similar to these observed from hydroxyurea^26, aphidicolin^27, and to a certain extent, methotrexate treatments^28. Direct inhibition of DNA polymerase activity provides a unique mechanism that is not employed by any of the current cancer therapeutics. We selected a number of most widely prescribed chemotherapeutics with distinct mechanisms to compare their antiproliferative potential in the 2 cancer cell lines. We included alkylating agent cisplatin, antimetabolites methotrexate and 5-flourouracil (5FU)^29-31. […] Whereas the comparison with cisplatin is biphasic.
as §1

[6] = test system: MCF7 cells; test: Cell proliferation assay, MTT method; format: cell-based, human
From the text: as §2, §1

[7] = molecular target: T1, Pol δ; test: single nucleotide primer extension (incorporation) assay; format: biochemical; conditions: single dNTP present
Procedure: In our in silico screening, the active site cavity was created by the removal of dCTP in the original crystal structure. […] Therefore, we assayed the inhibition patterns of 4 individual dNTP molecules in a single nucleotide incorporation assays. In this assay, only one nucleotide is present for the primer extension for the next appropriate base paring to the template.
Briefly, the standard reaction mixture contained 5 μM dNTP, 5 mM MgCl2, 50 mM Tris-HCl (pH 7.5), 2 mM dithiothreitol, […] BSA, 50 mM NaCl, 20 nM primer/template, 50 nM PCNA, 10 nM Pol δ and variable concentrations of inhibitors. The reactions were initiated by addition of dNTPs and MgCl2. Reaction was allowed to proceed at 25° C. for 2 min before addition of stop buffer (95% formamide/25 mM EDTA). The products were separated on a 20% polyacrylamide gels urea. Products was visualized on phosphorimager and quantitated using Image-J software. For single nucleotide primer extension assay^18, the protocol is identical to primer extension assay except a single dNTP is used.

COC(=O)c1cc(-c2ccccc2)sc1NC(=S)NNC(=O)CCc1ccc(O)c(O)c1 [zelpolib] was tested, and the “concentration at which antiproliferative effect reaches a plateau” value (“concentration” below) [1] was “about 5 μM”, the “sensitisation of HCC1395 cells to Rucaparib” value ([2]; difference statistically significant up to 25 μM) was “behaved similarly to zelpolib and Niraparib combination” and the “sensitisation of HCC1395 cells to Niraparib” value ([2]; differences significant up to 20 μM) was “increased the sensitivity of HCC1395 cells to Niraparib across the whole range of concentrations”. The “EdU incorporation versus sham treatment” value [3] was “significant reduction of EdU incorporation”, the “full-length product (40 mer) formed” value [4] was “barely detectible” and the primer unextended [4] was 94%. For the same compound, the “antiproliferative activity compared with cisplatin” value ([5]; BxPC-3, MTT) was “superior to cisplatin up to 10 μM”, the “antiproliferative activity compared with methotrexate and 5-FU” value ([5]; BxPC-3, MTT) was “superior to methotrexate and 5-FU at all concentrations” and the “concentration” value ([5]; BxPC-3, MTT) was “about 5 μM”. The cytotoxicity ([5]; zelpolib alone, cell lines not specified) was “minimal cell cytotoxicity”, the “concentration” value [6] was “about 5 μM” and the “antiproliferative activity compared with methotrexate and 5-FU” value ([6]; 72 h) was “superior to methotrexate and 5-FU across the concentration range”. The “antiproliferative activity, zelpolib versus cisplatin” value ([6]; 72 h) was “at least as effective as cisplatin in inhibiting MCF7 cell growth up to 5 μM” and the “inhibition of incorporation of individual dNTPs (dATP, dGTP, dCTP, dTTP)” value [7] was “inhibited the incorporation of all four nucleotides to similar extents in a noncompetitive manner”.
